According to US20090291071A1, “COMPOSITIONS AND METHODS FOR CONTROLLING LIPID METABOLISM” (priority 2007, published 2009):
Where two headings read alike, the source gives them in different places.

What was measured:
[1] = system: lipoprotein; experiment: Inhibition of lipoprotein oxidation (heart disease model); assay type: biochemical; set-up: % Inhibition Vit C Alone: concentration or dose not given beside the values
Excerpt: Various combinations of antioxidants were studied to determine synergetic effects on lipoprotein oxidation. […] The antioxidants were used alone and together at micromolar and submolar concentrations to determine additive and […] effects on percentage inhibition of lipoprotein oxidation. A result when used together which is greater than the sum of this effects alone is considered to be a synergistic response. […] (Upper Panel) and Grow C (a natural Vitamin C extract) (Lower Panel).

[2] = system: lipoprotein; experiment: Glycation of lipoprotein by sugars; assay type: biochemical; settings: for glycation of the lipoprotein by glucose and D-ribose: combined with glucose or D-ribose, and lipoprotein
Excerpt: When dried beer solids, […], Vitamin E and Vitamin C were combined with glucose or D-ribose, and lipoprotein, glycation of the lipoprotein by glucose and D-ribose was inhibited. Similarly when RBC-Vitamin C or Vitamin E were combined with sorbitol and lipoprotein, glycation of the lipoprotein by sorbitol was inhibited.

[3] = system: LDL; settings: humans, daily ingestion of 1,200 IU; cited from earlier work

## O=C1O[C@H]([C@@H](O)CO)C(O)=C1O [Vit C, ascorbic acid]
[1]; line of Weight Ratio Vit C:DBS 0.136:1
  % Inhibition Vit C Alone: 0%
[1]; line of Weight Ratio Vit C:DBS 0.274:1
  % Inhibition Vit C Alone: 1.2%
[1]; line of Weight Ratio Vit C:DBS 0.343:1
  % Inhibition Vit C Alone: 2.0%
[1]; line of Weight Ratio Vit C:DBS 0.520:1
  % Inhibition Vit C Alone: 2.6%
[1]; line of Weight Ratio Vit C:DBS 0.680:1
  % Inhibition Vit C Alone: 3.0%
[2]
  glycation of the lipoprotein by glucose and D-ribose: inhibited

## Cc1c(C)c2c(c(C)c1O)CC[C@@](C)(CCC[C@H](C)CCC[C@H](C)CCCC(C)C)O2 [E, α-tocopherol]
[1]; E 25.6 mg
  % Inhibition of E Alone: 10.1%
[2]
  glycation of the lipoprotein by glucose and D-ribose: inhibited
[2]; combined with sorbitol and lipoprotein
  glycation of the lipoprotein by sorbitol: inhibited
[3]
  increase of the (alpha)-tocopherol content of LDL: up to 215%
  increase of the resistance of LDL to oxidation: ≤ 175%

## Catechin
0 h (time zero, reference)
  quantity of L-ascorbic acid remaining: 100%
6 h, test substance 0.01 mg/ml
  quantity of L-ascorbic acid remaining: 14.6%
6 h, test substance 0.1 mg/ml
  quantity of L-ascorbic acid remaining: 16.7%
6 h, test substance 1.0 mg/ml
  quantity of L-ascorbic acid remaining: 17.7%
20 h, test substance 0.01 mg/ml
  quantity of L-ascorbic acid remaining: 0.8%
20 h, test substance 0.1 mg/ml
  quantity of L-ascorbic acid remaining: 0.8%
20 h, test substance 1.0 mg/ml
  quantity of L-ascorbic acid remaining: 1.0%
44 h, test substance 0.01 mg/ml
  quantity of L-ascorbic acid remaining: 1.4%
44 h, test substance 0.1 mg/ml
  quantity of L-ascorbic acid remaining: 1.0%
44 h, test substance 1.0 mg/ml
  quantity of L-ascorbic acid remaining: 1.2%
72 h, test substance 0.01 mg/ml
  quantity of L-ascorbic acid remaining: 2.4%
72 h, test substance 0.1 mg/ml
  quantity of L-ascorbic acid remaining: 2.0%
72 h, test substance 1.0 mg/ml
  quantity of L-ascorbic acid remaining: 2.2%
Tested up to 1.0 mg/ml
  inhibition of L-ascorbic acid degradation: Neither epicatechin (EPC) nor catechin (CAT) showed any inhibitory effects
